Measurements: publication PMC11266932, “Enhanced absorption of prenylated cinnamic acid derivatives from Brazilian green propolis by turmeric in humans and rats” (Food Science & Nutrition, 2024)
Where two headings read alike, the source gives them in different places.

Assays:
MDCK II cell monolayer = experiment: Bidirectional transport assay across parent MDCK II cell monolayer; format: in vitro ADME, canine; conditions: 10 μM; for Papp MDCK II A to B / Papp MDCK II B to A: 120 min, mean ± SE, n = 2
Method: (§1) The Madin‐Darby canine kidney (MDCK II) cell line and MDCK II cells overexpressing multidrug resistance 1 (MDR1) or breast cancer resistance protein (BCRP) were purchased from the Netherlands Cancer Institute (Amsterdam, Netherlands) and SOLVO Biotechnology (Szeged, Hungary), respectively. The cell lines were routinely cultured in Dulbecco's modified Eagle's medium (DMEM) containing 10% fetal bovine serum and 1% penicillin/streptomycin at 37°C in 5% CO2. All cells were seeded in a feeder tray at a density of 3–6 × 10^4 cells/well and grown for 3–4 days. On the day of the transport study, cell monolayers were washed with Hanks' balanced salt solution (HBSS) buffer containing 0.1% BSA (pH 7.4) and incubated at 37°C for 20 min. Artepillin C and drupanin dissolved in DMSO (10 mM) were added to the transport buffer (HBSS containing 10 mM HEPES, 0.2% glucose, 0.1% BSA, pH 7.4) to a final concentration of 10 μM and then loaded into the apical or basolateral chamber. After 120 min of incubation, 150 μL of the aliquots were collected from the donor and receiver chambers and mixed with an equal volume of 50% methanol. After centrifugation at 3000 rpm for 10 min at 4°C, the supernatants were filtered and subjected to LC–MS/MS analysis.
(§2) The in vitro samples were analyzed using HPLC (LC‐20A, Shimadzu, Kyoto, Japan) with a reversed‐phase column (Inertsil ODS‐3, 2.1 × 33 mm, ID. 3 μm, GL Sciences, Tokyo, Japan) held at 40°C. The mobile solvents used were water with 10 mM ammonium acetate (pH 4.0, A) and methanol (B) pumped at a flow rate of 0.4 mL/min. The following gradient was employed: 10%–90% B (0–0.5 min), 90% B (0.5–2.5 min), and 10% B (2.5–4 min). The eluent was monitored using a triple quadrupole mass spectrometer (API 4000, AB Sciex, Framingham, MA, USA) incorporating an electrospray ion source (ESI) operating in the multiple reaction monitoring mode. The ESI source was operated in negative ionization mode at 600°C with a spray voltage of −4.5 kV. The curtain gas (nitrogen), collision gas (nitrogen), nebulizer gas (whole air), and drying gas (whole air) were set at 40, 5, 50, and 70 psi, respectively. […] Artepillin C and drupanin were diluted in 50% methanol to concentrations of 1.6, 3.2, 8, 40, 200, 1000, and 2000 nM and were used as external standards. Sulfaphenazole (0.2 μM) was used as an internal standard.
(§3) The apparent permeability coefficients (Papp) for both directions, from the apical side to the basolateral side (A to B) and from the basolateral side to the apical side (B to A) in the cell monolayer, were calculated using the following equation: (1) Papp=dQ/dt/A×C0 where dQ/dt is the permeation rate (nmol/s), A is the membrane area (cm^2), and C0 is the initial concentration of the compound in the donor compartment (nM). The efflux ratios (ER) in the B‐to‐A and A‐to‐B directions were determined using the following equation: (2) ER=PappBtoA/PappAtoB

[1] = molecular target: T1, breast cancer resistance protein (BCRP) (Homo sapiens, UniProt Q9UNQ0); experiment: Bidirectional transport assay across MDCK II-BCRP cell monolayer; format: in vitro ADME; conditions: for Net flux ratio: ER of MDCK II‐BCRP divided by ER of parent MDCK II, >2 = transporter-mediated efflux; for substrate of BCRP (in words): bidirectional transport assay, net flux ratio criterion
T1 construct: host or cells: MDCK II (Madin-Darby canine kidney) cells overexpressing BCRP
T1 sequence (Q9UNQ0 1-655): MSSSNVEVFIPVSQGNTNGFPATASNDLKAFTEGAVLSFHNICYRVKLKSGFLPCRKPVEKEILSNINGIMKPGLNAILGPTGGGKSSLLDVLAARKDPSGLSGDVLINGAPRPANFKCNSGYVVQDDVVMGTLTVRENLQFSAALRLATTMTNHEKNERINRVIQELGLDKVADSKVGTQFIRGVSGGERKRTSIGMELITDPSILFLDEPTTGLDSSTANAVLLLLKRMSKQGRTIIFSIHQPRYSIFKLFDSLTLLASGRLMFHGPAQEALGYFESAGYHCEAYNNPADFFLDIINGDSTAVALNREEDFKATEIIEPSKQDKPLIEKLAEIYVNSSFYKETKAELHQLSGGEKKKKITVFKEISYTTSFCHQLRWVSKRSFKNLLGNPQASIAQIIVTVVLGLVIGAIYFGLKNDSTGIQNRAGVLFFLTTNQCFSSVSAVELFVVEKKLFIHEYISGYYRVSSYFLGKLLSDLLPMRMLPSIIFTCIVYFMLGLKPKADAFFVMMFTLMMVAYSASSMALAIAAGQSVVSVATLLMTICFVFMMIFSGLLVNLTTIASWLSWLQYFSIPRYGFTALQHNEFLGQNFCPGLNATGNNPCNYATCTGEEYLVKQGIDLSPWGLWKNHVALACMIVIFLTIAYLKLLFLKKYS
Method: as §1, §2, §3
(§4) Net flux ratios were calculated by dividing the ER obtained from MDCK II‐MDR1 (or BCRP) cells by that obtained from the parent MDCK II cells.

[2] = Bidirectional transport assay across parent MDCK II cell monolayer; format: in vitro ADME, canine; conditions: dog; for efflux ratio at 120 min, 10 μM: MDCK, pH 7.4, 10 μM, Papp B to A / Papp A to B, read-out: Flux ratio (MDCK II) (efflux ratio, ER); for Papp A→B at 120 min, 10 μM / Papp B→A at 120 min, 10 μM: mean ± SE, n = 2
Method: as §1, §2, §3

MDR1 (P-gp) = molecular target: T2, MDR1 (P-gp) (Homo sapiens, UniProt P08183); experiment: Bidirectional transport assay across MDCK II-MDR1 cell monolayer; format: in vitro ADME; conditions: dog, MDCK-MDR1, pH 7.4
T2 construct: host or cells: MDCK II (Madin-Darby canine kidney) cells overexpressing MDR1
T2 sequence (P08183 whole entry): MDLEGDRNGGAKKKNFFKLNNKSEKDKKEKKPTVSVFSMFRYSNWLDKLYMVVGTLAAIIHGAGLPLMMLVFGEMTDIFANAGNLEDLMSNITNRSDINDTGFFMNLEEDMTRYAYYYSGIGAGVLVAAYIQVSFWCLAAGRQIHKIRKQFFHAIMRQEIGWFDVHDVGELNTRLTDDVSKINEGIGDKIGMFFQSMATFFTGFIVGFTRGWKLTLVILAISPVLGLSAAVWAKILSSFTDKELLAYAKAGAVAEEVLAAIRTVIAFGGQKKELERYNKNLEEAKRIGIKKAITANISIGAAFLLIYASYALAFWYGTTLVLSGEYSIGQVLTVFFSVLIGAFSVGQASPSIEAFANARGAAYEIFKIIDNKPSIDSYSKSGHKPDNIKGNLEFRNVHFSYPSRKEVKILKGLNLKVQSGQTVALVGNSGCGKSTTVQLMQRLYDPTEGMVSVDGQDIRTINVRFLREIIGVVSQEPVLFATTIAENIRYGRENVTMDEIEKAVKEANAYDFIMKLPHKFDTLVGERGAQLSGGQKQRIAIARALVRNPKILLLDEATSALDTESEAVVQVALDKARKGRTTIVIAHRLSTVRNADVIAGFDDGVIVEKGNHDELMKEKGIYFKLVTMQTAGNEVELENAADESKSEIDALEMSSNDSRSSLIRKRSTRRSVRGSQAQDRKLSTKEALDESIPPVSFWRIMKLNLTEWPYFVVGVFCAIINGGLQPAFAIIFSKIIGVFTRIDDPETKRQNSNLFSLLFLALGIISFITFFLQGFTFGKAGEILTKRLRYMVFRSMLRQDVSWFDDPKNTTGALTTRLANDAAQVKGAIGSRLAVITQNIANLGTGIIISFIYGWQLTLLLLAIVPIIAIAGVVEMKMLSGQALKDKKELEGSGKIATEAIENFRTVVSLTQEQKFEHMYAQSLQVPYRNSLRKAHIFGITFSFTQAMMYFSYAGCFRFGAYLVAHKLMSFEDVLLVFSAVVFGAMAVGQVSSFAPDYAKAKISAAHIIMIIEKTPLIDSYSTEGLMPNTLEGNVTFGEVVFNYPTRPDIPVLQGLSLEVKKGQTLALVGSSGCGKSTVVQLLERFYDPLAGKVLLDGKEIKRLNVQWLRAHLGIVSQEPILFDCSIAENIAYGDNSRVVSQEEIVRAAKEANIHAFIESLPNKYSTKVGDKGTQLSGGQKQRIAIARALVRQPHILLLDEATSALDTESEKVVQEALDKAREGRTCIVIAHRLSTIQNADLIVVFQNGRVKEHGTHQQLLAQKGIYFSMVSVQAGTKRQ
Method: as §1, §2, §3, §4

BCRP = molecular target: T3, BCRP (Homo sapiens, UniProt Q9UNQ0); experiment: Bidirectional transport assay across MDCK II-BCRP cell monolayer; format: in vitro ADME; conditions: dog, pH 7.4
T3 construct: host or cells: MDCK II (Madin-Darby canine kidney) cells overexpressing BCRP
T3 sequence (Q9UNQ0 1-655): T1 sequence (Q9UNQ0 1-655)
Method: as §1, §2, §3, §4

[3] = parent cells of the BCRP experiment (Table 3)
[4] = parent cells of the MDR1 experiment (Table 2)
[5] = 10 μM, 120 min, mean ± SE, n = 2
[6] = MDCK-MDR1, pH 7.4, parent cells of the MDR1 experiment (Table 2)
[7] = pH 7.4, parent cells of the BCRP experiment (Table 3)

Question: For `CC(C)=CCc1cc(/C=C/C(=O)O)cc(CC=C(C)C)c1O` [artepillin C], which “Papp MDCK II A to B” value (MDCK II cell monolayer; [3]) is on record?
Answer: Its value is 13.0 ± 0.8 10^−6 cm/s.

Question: And the “Papp MDCK II B to A” value (MDCK II cell monolayer; [3])?
Answer: The value was 10.8 ± 0.1 10^−6 cm/s.

Question: And the “Papp MDCK II A to B” value (MDCK II cell monolayer; [4])?
Answer: Its value is 14.0 ± 0.7 10^−6 cm/s.

Question: What about the “Papp MDCK II B to A” value (MDCK II cell monolayer; [4]) of the same molecule?
Answer: The value was 11.2 ± 1.2 10^−6 cm/s.

Question: And the “Flux ratio (MDCK II) (efflux ratio, ER)” value (MDCK II cell monolayer; Papp B to A / Papp A to B, Table 2 experiment)?
Answer: The value was 0.8.

Question: And the “Papp MDCK II‐BCRP A to B” value [1, 5]?
Answer: The value was 9.7 ± 0.2 10^−6 cm/s.

Question: What about the “Papp MDCK II‐BCRP B to A” value [1, 5] of the same molecule?
Answer: The value was 16.0 ± 0.01 10^−6 cm/s.

Question: What about the “Flux ratio (MDCK II‐BCRP) (efflux ratio, ER)” value ([1]; 10 μM, Papp B to A / Papp A to B) of the same molecule?
Answer: Its value is 1.6.

Question: And the Net flux ratio [1]?
Answer: Its Net flux ratio is 2.0.

Question: And the “substrate of BCRP (in words)” value [1]?
Answer: Its value is “substrates”.

Question: For `CC(C)=CCc1cc(/C=C/C(=O)O)ccc1O` [drupanin], which efflux ratio at 120 min, 10 μM ([2]; Table 2 experiment) is on record?
Answer: The efflux ratio at 120 min, 10 μM was 0.9.

Question: And the efflux ratio at 120 min, 10 μM ([2]; Table 3 experiment)?
Answer: Its efflux ratio at 120 min, 10 μM is 0.8.

Question: And the Papp A→B at 120 min, 10 μM [2, 6]?
Answer: Its Papp A→B at 120 min, 10 μM is 11.1 ± 0.2 ×10⁻⁶ cm/s.

Question: What about the Papp B→A at 120 min, 10 μM [2, 6] of the same molecule?
Answer: The Papp B→A at 120 min, 10 μM was 9.9 ± 0.2 ×10⁻⁶ cm/s.

Question: What about the Papp A→B at 120 min, 10 μM [2, 7] of the same molecule?
Answer: The Papp A→B at 120 min, 10 μM was 11.6 ± 0.1 ×10⁻⁶ cm/s.

Question: And the Papp B→A at 120 min, 10 μM [2, 7]?
Answer: The Papp B→A at 120 min, 10 μM was 8.9 ± 0.4 ×10⁻⁶ cm/s.

Question: And the Papp A→B at 120 min, 10 μM (MDR1 (P-gp); [5])?
Answer: The Papp A→B at 120 min, 10 μM was 13.3 ± 1.4 ×10⁻⁶ cm/s.

Question: What about the Papp B→A at 120 min, 10 μM (MDR1 (P-gp); [5]) of the same molecule?
Answer: Its Papp B→A at 120 min, 10 μM is 11.2 ± 0.2 ×10⁻⁶ cm/s.

Question: And the efflux ratio at 120 min, 10 μM (MDR1 (P-gp); read-out: Flux ratio (MDCK II‐MDR1) (efflux ratio, ER))?
Answer: The efflux ratio at 120 min, 10 μM was 0.8.

Question: And the Papp A→B at 120 min, 10 μM (BCRP; [5])?
Answer: Its Papp A→B at 120 min, 10 μM is 1.3 ± 0.1 ×10⁻⁶ cm/s.

Question: And the Papp B→A at 120 min, 10 μM (BCRP; [5])?
Answer: The Papp B→A at 120 min, 10 μM was 20.9 ± 0.1 ×10⁻⁶ cm/s.

Question: What about the efflux ratio at 120 min, 10 μM (BCRP; read-out: Flux ratio (MDCK II‐BCRP) (efflux ratio, ER)) of the same molecule?
Answer: Its efflux ratio at 120 min, 10 μM is 15.7.

Question: What about the Net flux ratio [1] of the same molecule?
Answer: The Net flux ratio was 20.4.

Question: And the “substrate of BCRP (in words)” value [1]?
Answer: Its value is “substrates”.
